27 molecules from patent US8530504B2, “Pyrazolothiazole compound” (Eisai R&D Management Co., Ltd., priority 2009, dated 2013) can be followed below.

The assay deals with human CRFR1 (Homo sapiens (Human), UniProt P34998). The experiment in a line: CRFR1 Binding Test.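 Note: nonspecific binding was determined with a 4,000-fold excess of unlabelled sauvagine and subtracted from every reading.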 To be noted: competition with 100 pM 125I-CRF, SPA method, membrane fraction of human CRFR1-expressing HEK293 cells; read-out: CRF1 receptor binding capacity IC50.
human CRFR1, sequence (P34998 24-415): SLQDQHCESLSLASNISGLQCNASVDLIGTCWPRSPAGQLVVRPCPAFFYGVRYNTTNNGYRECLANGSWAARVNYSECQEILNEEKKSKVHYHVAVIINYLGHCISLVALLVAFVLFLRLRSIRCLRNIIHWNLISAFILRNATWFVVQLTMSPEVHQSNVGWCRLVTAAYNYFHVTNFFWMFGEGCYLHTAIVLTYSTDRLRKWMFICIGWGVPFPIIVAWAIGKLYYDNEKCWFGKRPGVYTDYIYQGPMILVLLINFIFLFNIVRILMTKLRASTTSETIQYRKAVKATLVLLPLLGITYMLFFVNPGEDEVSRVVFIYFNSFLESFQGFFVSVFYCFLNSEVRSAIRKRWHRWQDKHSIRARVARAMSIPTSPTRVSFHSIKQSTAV
For the molecule `CCCCN(CCOC)c1c(OC)nn2c(-c3c(OC)cc(COC)cc3OC)csc12` [Example 28, N-Butyl-3-[2,6-dimethoxy-4-(methoxymethyl)phenyl]-6-methoxy-N-(2-methoxyethyl)pyrazolo[5,1-b][1,3]thiazole-7-amine], the IC50 (in general, the midpoint of a concentration-inhibition curve) was 40 nM.
The value for `COCc1cc(OC)c(-c2csc3c(N(C4CCC4)C4CCOC4)c(OC)nn23)c(OC)c1` (stereo not drawn) [Example 67, N-Cyclobutyl-3-[2,6-dimethoxy-4-(methoxymethyl)phenyl]-6-methoxy-N-(tetrahydrofuran-3-yl)pyrazolo[5,1-b][1,3]thiazole-7-amine] was 52 nM.
The value for `COCCN(c1c(OC)nn2c(-c3c(OC)cc(COC)cc3OC)csc12)C1CCCCC1` [Example 54, N-Cyclohexyl-3-[2,6-dimethoxy-4-(methoxymethyl)phenyl]-6-methoxy-N-(2-methoxyethyl)pyrazolo[5,1-b][1,3]thiazole-7-amine] was 20 nM; that for `CCCN(c1c(OCC)nn2c(-c3c(OC)cc(COC)cc3OC)csc12)C1CCOCC1` [Example 79, 3-[2,6-Dimethoxy-4-(methoxymethyl)phenyl]-6-ethoxy-N-propyl-N-(tetrahydro-2H-pyran-4-yl)pyrazolo[5,1-b][1,3]thiazole-7-amine] was 76 nM.
The value for `CCOCc1cc(OC)c(-c2csc3c(N(CC4CCC4)C4CCOC4)c(OC)nn23)c(OC)c1` (stereo not drawn) [Example 47, N-(Cyclobutylmethyl)-3-[4-(ethoxymethyl)-2,6-dimethoxyphenyl]-6-methoxy-N-(tetrahydrofuran-3-yl)pyrazolo[5,1-b][1,3]thiazole-7-amine] was 32 nM; that for `CCOCc1cc(OC)c(-c2csc3c(N(CCCF)C4CCOCC4)c(OC)nn23)c(OC)c1` [Example 35, [3-(4-Ethoxymethyl-2,6-dimethoxy-phenyl)-6-methoxy-pyrazolo[5,1-b][1,3]thiazol-7-yl]-(3-fluoro-propyl)-(tetrahydro-pyran-4-yl)-amine] was 89 nM.
Regarding `CCOCCN(CC1CC1)c1c(OC)nn2c(-c3c(OC)cc(COC)cc3OC)csc12` [Example 45, N-(Cyclopropylmethyl)-3-[2,6-dimethoxy-4-(methoxymethyl)phenyl]-N-(2-ethoxyethyl)-6-methoxypyrazolo[5,1-b][1,3]thiazole-7-amine], the IC50 came out at 48 nM.
The value for `CCN(c1c(OC)nn2c(-c3c(OC)cc(COC)cc3OC)csc12)C1CCC1` [Example 59, N-Cyclobutyl-3-[2,6-dimethoxy-4-(methoxymethyl)phenyl]-N-ethyl-6-methoxypyrazolo[5,1-b][1,3]thiazole-7-amine] was 24 nM.
In the case of `COCCCN(CC1CC1)c1c(OC)nn2c(-c3c(OC)cc(COC)cc3OC)csc12` [Example 32, N-(Cyclopropylmethyl)-3-[2,6-dimethoxy-4-(methoxymethyl)phenyl]-6-methoxy-N-(3-methoxypropyl)pyrazolo[5,1-b][1,3]thiazole-7-amine], the IC50 was found to be 57 nM.
Then `CCCN(CCCOC)c1c(OC)nn2c(-c3c(OC)cc(COC)cc3OC)csc12` [Example 39, 3-[2,6-Dimethoxy-4-(methoxymethyl)phenyl]-6-methoxy-N-(3-methoxypropyl)-N-propylpyrazolo[5,1-b][1,3]thiazole-7-amine], with 57 nM.
Then `CCCCN(c1c(OC)nn2c(-c3c(OC)cc(COC(C)C)cc3OC)csc12)C1CCOCC1` [Example 75, Butyl-[3-(4-isopropoxymethyl-2,6-dimethoxy-phenyl)-6-methoxy-pyrazolo[5,1-b][1,3]thiazol-7-yl]-(tetrahydro-pyran-4-yl)amine], with 74 nM; and `COc1cc(Cl)cc(OC)c1-c1csc2c(N(CC3CC3)CC3CCOC3)c(OC)nn12` (stereo not drawn) [Example 30, 3-(4-Chloro-2,6-dimethoxyphenyl)-N-(cyclopropylmethyl)-6-methoxy-N-(tetrahydrofuran-3-ylmethyl)pyrazolo[5,1-b][1,3]thiazole-7-amine], with 49 nM; and `COCc1cc(OC)c(-c2csc3c(N(CC4CC4)CC4C5COCC54)c(OC)nn23)c(OC)c1` (single isomer, unassigned; diastereomer 2) [Example 96, N-(Cyclopropylmethyl)-3-[2,6-dimethoxy-4-(methoxymethyl)phenyl]-6-methoxy-N-[3-oxabicyclo[3.1.0]hex-6-ylmethyl]-pyrazolo[5,1-b][1,3]thiazole-7-amine (diastereomer 2)], with 62 nM.
The value for `COCc1cc(OC)c(-c2csc3c(N(CCCF)Cc4ccncc4)c(OC)nn23)c(OC)c1` [Example 70, 3-[2,6-Dimethoxy-4-(methoxymethyl)phenyl]-N-(3-fluoropropyl)-6-methoxy-N-(pyridin-4-ylmethyl)-pyrazolo[5,1-b][1,3]thiazole-7-amine] was 61 nM; that for `CCCCN(CC1COCOC1)c1c(OC)nn2c(-c3c(OC)cc(COC)cc3OC)csc12` [Example 12, Butyl-[3-(2,6-dimethoxy-4-methoxymethyl-phenyl)-6-methoxy-pyrazolo[5,1-b][1,3]thiazol-7-yl)-[1,3]dioxan-5-ylmethyl-amine] was 71 nM; that for `COCCN(CC1CCC1)c1c(OC)nn2c(-c3c(OC)cc(COC)cc3OC)csc12` [Example 48, N-(Cyclobutylmethyl)-3-[2,6-dimethoxy-4-(methoxymethyl)phenyl]-6-methoxy-N-(2-methoxyethyl)pyrazolo[5,1-b][1,3]thiazole-7-amine] was 25 nM.
For `CCCN(c1c(OC)nn2c(-c3c(OC)cc(COC)cc3OC)c(CC)sc12)C1CCOCC1` [Example 9, [3-(2,6-Dimethoxy-4-methoxymethyl-phenyl)-2-ethyl-6-methoxy-pyrazolo[5,1-b][1,3]thiazol-7-yl]-propyl-(tetrahydro-pyran-4-yl)-amine], the 50% inhibitory concentration (IC50) was determined as 116 nM.
Turning to `COCc1cc(OC)c(-c2csc3c(N(CCOC(C)C)CC4CC4)c(OC)nn23)c(OC)c1` [Example 49, N-(Cyclopropylmethyl)-3-[2,6-dimethoxy-4-(methoxymethyl)phenyl]-N-(2-isopropoxyethyl)-6-methoxypyrazolo[5,1-b][1,3]thiazole-7-amine], the IC50 was 59 nM.
For the molecule `COCc1cc(OC)c(-c2csc3c(N(CCCF)Cc4ccccn4)c(OC)nn23)c(OC)c1` [Example 72, 3-[2,6-Dimethoxy-4-(methoxymethyl)phenyl]-N-(3-fluoropropyl)-6-methoxy-N-(pyridin-2-ylmethyl)-pyrazolo[5,1-b][1,3]thiazole-7-amine], the IC50 was determined as 75 nM.
Regarding `COCc1cc(OC)c(-c2csc3c(N(CC4CC4)c4cccnc4)c(OC)nn23)c(OC)c1` [Example 89, N-(Cyclopropylmethyl)-3-[2,6-dimethoxy-4-(methoxymethyl)phenyl]-6-methoxy-N-pyridin-3-ylpyrazolo[5,1-b][1,3]thiazole-7-amine], the IC50 is 52 nM.
Then `CCCN(c1c(OC)nn2c(-c3c(OC)cc(COC)cc3OC)csc12)C1CCCOCC1` (stereo not drawn) [Example 34, 3-[2,6-Dimethoxy-4-(methoxymethyl)phenyl]-6-methoxy-N-oxepan-4-yl-N-propylpyrazolo[5,1-b][1,3]thiazole-7-amine], with 130 nM; and `CCCN(Cc1ccncc1)c1c(OC)nn2c(-c3c(OC)cc(COC)cc3OC)csc12` [Example 44, 3-[2,6-Dimethoxy-4-(methoxymethyl)phenyl]-6-methoxy-N-propyl-N-(pyridin-4-ylmethyl)pyrazolo[5,1-b][1,3]thiazole-7-amine], with 53 nM; and `CCCN(CC1CCOC1)c1c(OC)nn2c(-c3cnc(N(C)C)cc3OC)csc12` (stereo not drawn) [Example 16, [3-(6-Dimethylamino-4-methoxy-pyridin-3-yl)-6-methoxy-pyrazolo[5,1-b][1,3]thiazol-7-yl]-propyl-(tetrahydro-furan-3-ylmethyl)-amine], with 132 nM.
Then `CCCN(c1c(OC)nn2c(-c3c(OC)cc(C)cc3OC)csc12)C1CCOCC1` [Example 17, 3-(2,6-Dimethoxy-4-methylphenyl)-6-methoxy-N-propyl-N-(tetrahydro-2H-pyran-4-yl)pyrazolo[5,1-b][1,3]thiazole-7-amine], with 56 nM; and `COCCCN(c1c(OC)nn2c(-c3c(Cl)cc(COC)cc3OC)csc12)C1CCCC1` [Example 73, 3-[2-Chloro-6-methoxy-4-(methoxymethyl)phenyl]-N-cyclopentyl-6-methoxy-N-(3-methoxypropyl)pyrazolo[5,1-b][1,3]thiazole-7-amine], with 66 nM.
In the case of `CCCN(c1c(OC)nn2c(-c3c(OC)cc(CC)cc3OC)csc12)C1CCOCC1` [Example 22, [3-(4-Ethyl-2,6-dimethoxyphenyl)-6-methoxypyrazolo[5,1-b][1,3]thiazol-7-yl]-propyl-(tetrahydro-pyran-4-yl)amine], the IC50 is 64 nM.
Then `COCc1cc(OC)c(-c2csc3c(N(CC4CC4)CC(C)OC)c(OC)nn23)c(OC)c1` (stereo not drawn) [Example 51, N-(Cyclopropylmethyl)-3-[2,6-dimethoxy-4-(methoxymethyl)phenyl]-6-methoxy-N-(2-methoxypropyl)pyrazolo[5,1-b][1,3]thiazole-7-amine], with 36 nM.
